In US6861395B2, “Method and compositions for inhibiting the growth of microorganisms in metal working fluids” (Arch UK Biocides Limited, priority 2000, dated 2005):

How the values were obtained:
[1] = Temperature stability of biocide in semi-synthetic metal working fluid (storage at 50° C., HPLC); settings: Semi-synthetic metal working fluid Quaker fluid No. 12717
Experimental: The biocides shown in Table 1 were added to Trim C111A (ex. Master Chemical Corporation, USA, a synthetic water miscible cutting and grinding fluid used as coolant and lubricant in metal removal processes). The initial concentration of the biocide in the metal working fluid is shown in the third column of Table 1. The metal working fluid was then stored at 50° C. for 45 days.
The concentration of biocide remaining after storage was measured using reverse phase high performance liquid chromatography (HPLC) after initial sample preparation. In the case of 2-n-butyl-benzisothiazolin-3-one, 2-n-octyl-isothiazolin-3-one and 3-iodo-2-propynyl-N-butylcarbamate sample preparation involved solvent extraction of the active from the metal working fluid. For sodium pyrithione, initial sample preparation was derivatisation to produce a compound readily detectable by HPLC.
The stability of the biocides shown in Tables 2 and 3 in semi-synthetic and soluble oil metal working fluids was assessed using the same method described above in Example 1.

[2] = tested on: Yeast and Fungi (Fusarium solani, Penicillium sp., Acremonium strictum, Geotrichum candidum); assay: Microbial resistance test based on ASTM E686-91, fungal contamination in synthetic metal working fluid; assay type: cell-based; settings: for Fungal Contamination after (days) 10: 10 days; for Fungal Contamination after (days) 31: 31 days; for Fungal Contamination after (days) 87: 87 days; for Fungal Contamination after (days) 110: 110 days; for all read-outs here: key: +++ indicates confluent growth; ++ indicates moderate growth; + indicates slight growth; − indicates no growth
Experimental: (§1) The following microbial strains were studied:
(§2) The biocides shown in Tables 4, 5 and 6 were added to the metal working fluid shown in each table and assessed for microbial resistance by a method based on ASTM E686-91: Standard Test Method for Evaluation of Antimicrobial Agents in Aqueous Metal Working Fluids as described below.
(§3) The metal working fluids used in the assessment were the same as those used in Examples 1 to 7.
(§4) Bacteria and fungi were gradually acclimatised to the metal working fluid. The organisms were grown up in biocide free metal working fluid (containing 50% (v/v) minimal broth) with aeration at 25° C. until microbial count reached 10^9 cfu/ml. Every 7 days each micro-organism was subcultured into 90 ml (10 ml inoculum) and re-incubated. Subculturing was done for a minimum of three cycles before use.
(§5) To 1I French square bottles, 900 ml of metal working fluid was added at use concentration (diluted to 5% with water of 125 ppm calcium hardness). 100 ml of inoculum was added and mixed (100 ml of total quantity was removed and discarded). The metal working fluid was allowed to sit undisturbed for 64 hours. The metal working fluid was mixed and sampled for microbiological testing.
(§6) Bacteria and fungi were enumerated by streaking an aliquot onto nutrient or malt agar as appropriate. The mixtures were aerated using capillary tubing to bubble air into the bottom of the bottle (introduced by means of a multi-valve air manifold). Antifoam was also added. After 5 days, the aeration was stopped and volume replaced with sterile distilled water. The mixture was allowed to sit for 64 hours and then mixed. 10 ml of inoculum was used to re-inoculate and all losses were replaced with Biocide containing metal working fluid. The pH of the metal working fluid was measured at start of test and every 7 days. […] Aeration was resumed and the regime repeated for a minimum of 6 weeks or until failure.

[3] = Temperature stability of biocide in soluble oil metal working fluid (storage at 50° C., HPLC)
[4] = tested on: Yeast and Fungi (Fusarium solani, Penicillium sp., Acremonium strictum, Geotrichum candidum); assay: Microbial resistance test based on ASTM E686-91, fungal contamination in semi synthetic metal working fluid; assay type: cell-based; settings: for Fungal Contamination after (days) 10: 10 days; for Fungal Contamination after (days) 31: 31 days; for Fungal Contamination after (days) 87: 87 days; for Fungal Contamination after (days) 110: 110 days; for all read-outs here: key: +++ indicates confluent growth; ++ indicates moderate growth; + indicates slight growth; − indicates no growth
Experimental: as §1, §2, §3, §4, §5, §6

[5] = Temperature stability of biocide in synthetic metal working fluid (storage at 50° C., HPLC); assay type: physicochemical; settings: Synthetic metal working fluid Trim C111A
Experimental: The biocides shown in Table 1 were added to Trim C111A (ex. Master Chemical Corporation, USA, a synthetic water miscible cutting and grinding fluid used as coolant and lubricant in metal removal processes). […] The metal working fluid was then stored at 50° C. for 45 days.

[6] = tested on: Fusarium solani (ATCC 58877/IMI 314228); assay: MIC by doubling dilution in microtitre plate; assay type: cell-based
Experimental: The fungus Fusarium solani (ATCC 58877/IMI 314228) was grown in malt agar for 7-14 days at 25° C. to give a mycelial mat and the spores harvested from the surface using physiological saline to give a suspension containing about 10^6 fungal spores/ml. This was then diluted with malt broth to give a spore suspension containing 10^4 spores/ml. A 100 μl aliquot of this spore suspension was added to each well of a microtitre plate except for the first well which contained 180 μl.
A 20 μl aliquot of this solution was added to the first well of the microtitre plate and thoroughly mixed. 100 μl was withdrawn from the first well, added to the second well and mixed.

SMILES	Fungal Contamination after (days) 10 ([2]; Conc. (a.i.) 75 ppm)	Fungal Contamination after (days) 31 ([2]; Conc. (a.i.) 75 ppm)	Fungal Contamination after (days) 87 ([2]; Conc. (a.i.) 75 ppm)	Fungal Contamination after (days) 110 ([2]; Conc. (a.i.) 75 ppm)	Fungal Contamination after (days) 10 ([4]; 75 ppm)	Fungal Contamination after (days) 31 ([4]; 75 ppm)	Fungal Contamination after (days) 87 ([4]; 75 ppm)	Fungal Contamination after (days) 110 ([4]; 75 ppm)	Fungal Contamination after (days) 10 ([2]; Conc. (a.i.) 150 ppm)	Fungal Contamination after (days) 31 ([2]; Conc. (a.i.) 150 ppm)	Fungal Contamination after (days) 87 ([2]; Conc. (a.i.) 150 ppm)	Fungal Contamination after (days) 110 ([2]; Conc. (a.i.) 150 ppm)	Fungal Contamination after (days) 10 ([4]; 150 ppm)	Fungal Contamination after (days) 31 ([4]; 150 ppm)	Fungal Contamination after (days) 87 ([4]; 150 ppm)	Fungal Contamination after (days) 110 ([4]; 150 ppm)	also measured
CCCCNC(=O)OCC#CI [IPBC, 3-iodo-2-propynyl-N-n-butyl carbamate, reference compound]	−	−	−	−	−	−	−	−									% Remaining after storage at 50° C. for 45 days ([1]; initial concentration 5000 ppm): 0%; % Remaining after storage at 50° C. for 45 days ([3]; initial concentration 5000 ppm): 13%
[Na].[O-][n+]1ccccc1S [Sodium Omadine, sodium pyridine-2-thiol-1-oxide, reference compound]									++	+++	+++	+++	−	−	+	+	% Remaining after storage at 50° C. for 45 days ([5]; initial concentration 2500 ppm): 0%; % Remaining after storage at 50° C. for 45 days ([1]; initial concentration 2500 ppm): 0%; MIC ([6]; ATCC58877, 120 h, read-out: MIC values): 18.5 µg/mL; % Remaining after storage at 50° C. for 45 days ([3]; initial concentration 2500 ppm): 0%
CCCCn1sc2ccccc2c1=O [BBIT, 2-n-butyl-1,2-benzisothiazolin-3-one]	−	−	−	−	−	−	+	+	−	−	−	−	−	−	−	−	Fungal Contamination after (days) 10 ([2]; Conc. (a.i.) 100 ppm): −; Fungal Contamination after (days) 31 ([2]; Conc. (a.i.) 100 ppm): −; Fungal Contamination after (days) 87 ([2]; Conc. (a.i.) 100 ppm): −; Fungal Contamination after (days) 110 ([2]; Conc. (a.i.) 100 ppm): −; MIC values ([6]; malt broth, visual inspection after 5 days at 25° C.): 6.4 ppm; Fungal Contamination after (days) 10 ([4]; 100 ppm): −; Fungal Contamination after (days) 31 ([4]; 100 ppm): −; Fungal Contamination after (days) 87 ([4]; 100 ppm): −; Fungal Contamination after (days) 110 ([4]; 100 ppm): −
CCCCCCCCn1sccc1=O [OIT, 2-n-octyl-isothiazolin-3-one]																	% Remaining after storage at 50° C. for 45 days ([5]; initial concentration 2000 ppm): 0%; % Remaining after storage at 50° C. for 45 days ([1]; initial concentration 2000 ppm): 0%
